Test results: patent publication US9409905B2, “Antibacterial compounds and methods for use” (PTC THERAPEUTICS, INC., priority 2011, dated 2016)
In brackets after ≈: the same amount, converted by molar mass.

Columns and labels:
[1] = system: Escherichia coli (E. coli) BAS849; assay: Antibacterial activity, microbroth dilution MIC (Table 1); type: cell-based; settings: microbroth dilution, super sensitive Gram-negative E. coli BAS849, read-out: MIC, BAS849
Summary of the method: (§1)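 Broth microdilution; endpoint = no macroscopic growth; value = lowest inhibiting concn, μg/mL.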

[2] = system: Staphylococcus aureus (S. aureus) 29213; assay: as above; type: cell-based; settings: microbroth dilution, Gram-positive S. aureus 29213, read-out: MIC, 29213
Summary of the method: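 Each strain is exposed to test compound in a microbroth dilution series; visible growth is scored macroscopically, and the lowest growth-free concentration is recorded as MIC in μg/mL.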

E. coli 25922 = assay: as above; type: cell-based, Escherichia coli; settings: Escherichia coli; microbroth dilution; control Gram-negative E. coli 25922 strain; read-out: MIC, 25922
Summary of the method: as §1

E. coli LZ3111 = assay: Antibacterial activity, MIC, quinolone resistant strain (Table 2); type: cell-based; settings: Escherichia coli, LZ3111, read-out: MIC LZ3111
Summary of the method: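 Lowest concentration giving no macroscopically visible growth was taken as the MIC (μg/mL) after microbroth dilution testing.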

E. coli ELZ4000 = assay: Antibacterial activity, MIC, multi-drug resistant clinical isolate (Table 3); type: cell-based; settings: Escherichia coli, ELZ4000, read-out: MIC ELZ4000
Summary of the method: (§2)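 Growth inhibition is measured by microbroth dilution, and the minimum inhibitory concentration in μg/mL corresponds to the lowest drug level that prevents visible bacterial growth.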

E. coli ELZ4251 = assay: as above; type: cell-based; settings: Escherichia coli
Summary of the method: as §2

[3] = system: Acinetobacter baumannii (A. baumannii) BAA747; assay: Antibacterial activity, MIC (Table 4); type: cell-based; settings: A. baumannii BAA747, read-out: MIC, BAA747
Summary of the method: (§3)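 Values are MICs in μg/mL, read as the lowest compound concentration at which no growth is visible by eye. They come from a microbroth dilution method.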

[4] = system: Klebsiella pneumoniae (K. pneumoniae) 35657; assay: Antibacterial activity, MIC (Table 4); type: cell-based; settings: K. pneumoniae 35657, read-out: MIC, 35657
Summary of the method: as §3

A. baumannii MXX2240 = assay: Antibacterial activity, MIC, resistant strain (Table 4); type: cell-based; settings: Acinetobacter baumannii, MXX2240; resistant A. baumannii MMX2240, multi-drug resistant clinical isolate; read-out: MIC, MMX2240
Summary of the method: as §3

K. pneumoniae MXX1232 = assay: as above; type: cell-based; settings: Klebsiella pneumoniae, MXX1232; resistant K. pneumoniae MMX1232, multi-drug resistant clinical isolate; read-out: MIC, MMX1232
Summary of the method: as §3

[5] = system: Pseudomonas aeruginosa (P. aeruginosa) 27853; assay: Antibacterial activity, MIC (Table 5); type: cell-based; settings: P. aeruginosa 27853, read-out: MIC, 27853
Summary of the method: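 MIC in μg/mL from broth microdilution; endpoint is the lowest drug level giving no visible growth.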

[6] = system: Haemophilus influenzae (H. influenzae) 49247; assay: Antibacterial activity, MIC (Table 6); type: cell-based
Text: (§4) The antibacterial activity from a microbroth dilution method may be presented as the minimum inhibitory concentration (MIC in μg/mL). The MIC value is the lowest concentration of drug which prevents macroscopically visible growth under test conditions.
(§5) Antibacterial activity of test compounds against the Gram-negative bacteria Haemophilus influenzae (H. influenzae) 49247 is shown in Table 6, Moraxella catarrhalis (M. catarrhalis) 25238 is shown in Table 7 and Neisseria meningitidis (N. meningitidis) 13090 is shown in Table 8.

[7] = system: Neisseria meningitidis (N. meningitidis) 13090; assay: Antibacterial activity, MIC (Table 8); type: cell-based
Text: as §4, §5

Row | SMILES | MIC [1] | MIC [2] | MIC (E. coli 25922) | MIC (E. coli LZ3111) | MIC (E. coli ELZ4000) | MIC (E. coli ELZ4251) | MIC [3] | MIC [4] | MIC (A. baumannii MXX2240) | MIC (K. pneumoniae MXX1232) | MIC [5] | MIC [6] | MIC [7]
1 | CCc1cc(C(=O)O)c(=O)[nH]c1-c1ccc2c(c1)cc(CN1CCC[C@@H]1CO)n2C [Cpd 132, (R)-5-ethyl-6-(2-((2-(hydroxymethyl)pyrrolidin-1-yl)methyl)-1-methyl-1H-indol-5-yl)-2-oxo-1,2-dihydropyridine-3-carboxylic acid] | < 1 µg/mL | 12.5 to 150 µg/mL (≈ 30.5 to 366 µM) | < 1 µg/mL | 12.5 to 150 µg/mL (≈ 30.5 to 366 µM) | 12.5 to 150 µg/mL (≈ 30.5 to 366 µM) | 12.5 to 150 µg/mL (≈ 30.5 to 366 µM) | 3.5 to 12.5 µg/mL (≈ 8.55 to 30.5 µM) | < 1 µg/mL | 12.5 to 150 µg/mL (≈ 30.5 to 366 µM) | 12.5 to 150 µg/mL (≈ 30.5 to 366 µM) | 12.5 to 150 µg/mL (≈ 30.5 to 366 µM) |  | 
2 | CCc1c(-c2ccc3c(c2)oc(=O)n3C)[nH]c(=O)c(C(=O)O)c1O [Cpd 11, 5-ethyl-4-hydroxy-6-(3-methyl-2-oxo-2,3-dihydrobenzo[d]oxazol-6-yl)-2-oxo-1,2-dihydropyridine-3-carboxylic acid] | < 1 µg/mL | 12.5 to 150 µg/mL (≈ 37.8 to 454 µM) | 1 to 3.5 µg/mL (≈ 3.03 to 10.6 µM) | 12.5 to 150 µg/mL (≈ 37.8 to 454 µM) | 12.5 to 150 µg/mL (≈ 37.8 to 454 µM) | 12.5 to 150 µg/mL (≈ 37.8 to 454 µM) |  |  |  |  |  | < 1 µg/mL | 
3 | CCc1c(-c2ccc3cc[nH]c3c2)[nH]c(=O)c(C(=O)O)c1O [Cpd 423, 5-ethyl-4-hydroxy-6-(1H-indol-6-yl)-2-oxo-1,2-dihydropyridine-3-carboxylic acid] | < 1 µg/mL | 1 to 3.5 µg/mL (≈ 3.35 to 11.7 µM) | < 1 µg/mL | 1 to 3.5 µg/mL (≈ 3.35 to 11.7 µM) | 3.5 to 12.5 µg/mL (≈ 11.7 to 41.9 µM) | 1 to 3.5 µg/mL (≈ 3.35 to 11.7 µM) | < 1 µg/mL | < 1 µg/mL | 1 to 3.5 µg/mL (≈ 3.35 to 11.7 µM) | 12.5 to 150 µg/mL (≈ 41.9 to 503 µM) | 3.5 to 12.5 µg/mL (≈ 11.7 to 41.9 µM) |  | < 1 µg/mL
4 | CCc1c(-c2ccc3c(c2)cc(CN2CCC(O)C2)n3C)[nH]c(=O)c(C(=O)O)c1O (stereo not drawn) [Cpd 178, 5-ethyl-4-hydroxy-6-(2-((3-hydroxypyrrolidin-1-yl)methyl)-1-methyl-1H-indol-5-yl)-2-oxo-1,2-dihydropyridine-3-carboxylic acid] | < 1 µg/mL | 3.5 to 12.5 µg/mL (≈ 8.51 to 30.4 µM) | < 1 µg/mL | 3.5 to 12.5 µg/mL (≈ 8.51 to 30.4 µM) | 12.5 to 150 µg/mL (≈ 30.4 to 365 µM) | 12.5 to 150 µg/mL (≈ 30.4 to 365 µM) | 1 to 3.5 µg/mL (≈ 2.43 to 8.51 µM) | 3.5 to 12.5 µg/mL (≈ 8.51 to 30.4 µM) | 12.5 to 150 µg/mL (≈ 30.4 to 365 µM) | 12.5 to 150 µg/mL (≈ 30.4 to 365 µM) | 3.5 to 12.5 µg/mL (≈ 8.51 to 30.4 µM) |  | 
5 | CCc1cc(C(=O)O)c(=O)[nH]c1-c1ccc2c(c1)cc1n2CCC1N(C)C (stereo not drawn) [Cpd 152, 6-(1-(dimethylamino)-2,3-dihydro-1H-pyrrolo[1,2-a]indol-7-yl)-5-ethyl-2-oxo-1,2-dihydropyridine-3-carboxylic acid] | < 1 µg/mL | 12.5 to 150 µg/mL (≈ 34.2 to 410 µM) | < 1 µg/mL | 12.5 to 150 µg/mL (≈ 34.2 to 410 µM) | 12.5 to 150 µg/mL (≈ 34.2 to 410 µM) | 12.5 to 150 µg/mL (≈ 34.2 to 410 µM) | 3.5 to 12.5 µg/mL (≈ 9.58 to 34.2 µM) | < 1 µg/mL | 12.5 to 150 µg/mL (≈ 34.2 to 410 µM) | 12.5 to 150 µg/mL (≈ 34.2 to 410 µM) | 12.5 to 150 µg/mL (≈ 34.2 to 410 µM) |  | 
6 | CCc1cc(C(=O)O)c(=O)[nH]c1-c1ccc2c(c1)cc(CN1CCCC1)n2C [Cpd 124, 5-ethyl-6-(1-methyl-2-(pyrrolidin-1-ylmethyl)-1H-indol-5-yl)-2-oxo-1,2-dihydropyridine-3-carboxylic acid] | < 1 µg/mL | 12.5 to 150 µg/mL (≈ 32.9 to 395 µM) | < 1 µg/mL | 12.5 to 150 µg/mL (≈ 32.9 to 395 µM) | 12.5 to 150 µg/mL (≈ 32.9 to 395 µM) | 12.5 to 150 µg/mL (≈ 32.9 to 395 µM) | < 1 µg/mL | 1 to 3.5 µg/mL (≈ 2.64 to 9.22 µM) | 12.5 to 150 µg/mL (≈ 32.9 to 395 µM) | 12.5 to 150 µg/mL (≈ 32.9 to 395 µM) | 3.5 to 12.5 µg/mL (≈ 9.22 to 32.9 µM) |  | < 1 µg/mL
7 | Cc1c(-c2ccc3c(c2)cc(CNC2CCC2)n3C)[nH]c(=O)c(C(=O)O)c1O [Cpd 354, 6-(2-((cyclobutylamino)methyl)-1-methyl-1H-indol-5-yl)-4-hydroxy-5-methyl-2-oxo-1,2-dihydropyridine-3-carboxylic acid] | < 1 µg/mL | 12.5 to 150 µg/mL (≈ 32.8 to 393 µM) | 1 to 3.5 µg/mL (≈ 2.62 to 9.18 µM) | < 1 µg/mL | 3.5 to 12.5 µg/mL (≈ 9.18 to 32.8 µM) | < 1 µg/mL | 1 to 3.5 µg/mL (≈ 2.62 to 9.18 µM) | 1 to 3.5 µg/mL (≈ 2.62 to 9.18 µM) | < 1 µg/mL | 12.5 to 150 µg/mL (≈ 32.8 to 393 µM) | 12.5 to 150 µg/mL (≈ 32.8 to 393 µM) |  | < 1 µg/mL
8 | CCc1c(-c2ccc3c(c2)cc2n3CCC2N2CCCC2)[nH]c(=O)c(C(=O)O)c1O (stereo not drawn) [Cpd 304, 5-ethyl-4-hydroxy-2-oxo-6-(1-(pyrrolidin-1-yl)-2,3-dihydro-1H-pyrrolo[1,2-a]indol-7-yl)-1,2-dihydropyridine-3-carboxylic acid] | < 1 µg/mL | 12.5 to 150 µg/mL (≈ 30.7 to 368 µM) | < 1 µg/mL | 3.5 to 12.5 µg/mL (≈ 8.59 to 30.7 µM) | 12.5 to 150 µg/mL (≈ 30.7 to 368 µM) | 12.5 to 150 µg/mL (≈ 30.7 to 368 µM) | 1 to 3.5 µg/mL (≈ 2.45 to 8.59 µM) | 3.5 to 12.5 µg/mL (≈ 8.59 to 30.7 µM) | 12.5 to 150 µg/mL (≈ 30.7 to 368 µM) | 12.5 to 150 µg/mL (≈ 30.7 to 368 µM) | 12.5 to 150 µg/mL (≈ 30.7 to 368 µM) |  | 
